Measurements taken from ChEMBL document CHEMBL5291721, “A preclinical secondary pharmacology resource illuminates target-adverse drug reaction associations of marketed drugs” (Nat Commun, 2023).

What was measured:
[1] = target: T1, Alpha-2C adrenergic receptor (Homo sapiens, UniProt P18825); assay type: functional
T1 sequence (P18825 whole entry): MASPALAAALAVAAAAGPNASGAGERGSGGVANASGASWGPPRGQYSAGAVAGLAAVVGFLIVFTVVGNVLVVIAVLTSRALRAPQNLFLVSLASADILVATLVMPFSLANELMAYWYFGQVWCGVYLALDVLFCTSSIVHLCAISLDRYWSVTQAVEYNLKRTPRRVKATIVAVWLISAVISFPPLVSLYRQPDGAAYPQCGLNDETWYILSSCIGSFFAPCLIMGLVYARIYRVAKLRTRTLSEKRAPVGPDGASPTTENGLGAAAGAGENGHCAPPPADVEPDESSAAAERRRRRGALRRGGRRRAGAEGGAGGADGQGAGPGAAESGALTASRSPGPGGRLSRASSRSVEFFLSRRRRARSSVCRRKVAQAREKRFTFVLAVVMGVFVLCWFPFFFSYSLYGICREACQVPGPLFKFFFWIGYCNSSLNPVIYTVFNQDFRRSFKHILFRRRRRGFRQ

[2] = target: Vasopressin V1a receptor (Homo sapiens, UniProt P37288)
Sequence of Vasopressin V1a receptor (P37288 whole entry): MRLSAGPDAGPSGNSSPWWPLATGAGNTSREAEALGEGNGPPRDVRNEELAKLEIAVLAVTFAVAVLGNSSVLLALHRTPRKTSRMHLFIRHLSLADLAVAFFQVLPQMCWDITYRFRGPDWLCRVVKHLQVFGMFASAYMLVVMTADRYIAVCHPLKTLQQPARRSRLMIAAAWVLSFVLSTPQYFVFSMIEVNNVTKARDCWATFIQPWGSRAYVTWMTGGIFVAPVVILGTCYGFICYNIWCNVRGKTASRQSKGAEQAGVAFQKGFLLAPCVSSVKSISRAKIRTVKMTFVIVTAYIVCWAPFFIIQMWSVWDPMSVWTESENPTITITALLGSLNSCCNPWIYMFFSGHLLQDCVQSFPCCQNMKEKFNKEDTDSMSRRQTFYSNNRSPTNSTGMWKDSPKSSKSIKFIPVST

[3] = target: T2, B1 bradykinin receptor (Homo sapiens, UniProt P46663)
T2 sequence (P46663 whole entry): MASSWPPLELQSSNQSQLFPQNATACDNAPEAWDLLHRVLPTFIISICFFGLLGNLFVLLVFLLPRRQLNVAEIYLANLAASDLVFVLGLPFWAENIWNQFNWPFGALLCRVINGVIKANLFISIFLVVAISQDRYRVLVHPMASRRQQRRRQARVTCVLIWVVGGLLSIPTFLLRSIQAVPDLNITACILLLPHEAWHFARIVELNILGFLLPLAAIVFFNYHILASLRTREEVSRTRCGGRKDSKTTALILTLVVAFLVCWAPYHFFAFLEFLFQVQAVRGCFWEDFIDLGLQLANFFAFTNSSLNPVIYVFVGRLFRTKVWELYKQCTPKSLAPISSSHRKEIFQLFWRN

[4] = target: T3, 5-hydroxytryptamine receptor 1A (Homo sapiens, UniProt P08908); assay type: functional, cell-based
T3 sequence (P08908 whole entry): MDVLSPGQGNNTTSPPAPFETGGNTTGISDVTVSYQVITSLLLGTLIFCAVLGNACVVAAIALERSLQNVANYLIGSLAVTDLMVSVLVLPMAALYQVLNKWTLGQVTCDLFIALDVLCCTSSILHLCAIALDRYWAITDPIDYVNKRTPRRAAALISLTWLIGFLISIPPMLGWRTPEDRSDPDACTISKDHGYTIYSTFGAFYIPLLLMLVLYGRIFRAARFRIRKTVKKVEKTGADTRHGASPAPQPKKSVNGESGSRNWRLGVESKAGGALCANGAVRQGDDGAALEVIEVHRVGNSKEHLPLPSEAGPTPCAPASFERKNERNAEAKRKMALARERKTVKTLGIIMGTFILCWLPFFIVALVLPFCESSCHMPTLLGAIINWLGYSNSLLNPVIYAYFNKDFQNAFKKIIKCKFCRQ

[5] = target: T4, Glucocorticoid receptor (Homo sapiens, UniProt P04150)
T4 sequence (P04150 whole entry): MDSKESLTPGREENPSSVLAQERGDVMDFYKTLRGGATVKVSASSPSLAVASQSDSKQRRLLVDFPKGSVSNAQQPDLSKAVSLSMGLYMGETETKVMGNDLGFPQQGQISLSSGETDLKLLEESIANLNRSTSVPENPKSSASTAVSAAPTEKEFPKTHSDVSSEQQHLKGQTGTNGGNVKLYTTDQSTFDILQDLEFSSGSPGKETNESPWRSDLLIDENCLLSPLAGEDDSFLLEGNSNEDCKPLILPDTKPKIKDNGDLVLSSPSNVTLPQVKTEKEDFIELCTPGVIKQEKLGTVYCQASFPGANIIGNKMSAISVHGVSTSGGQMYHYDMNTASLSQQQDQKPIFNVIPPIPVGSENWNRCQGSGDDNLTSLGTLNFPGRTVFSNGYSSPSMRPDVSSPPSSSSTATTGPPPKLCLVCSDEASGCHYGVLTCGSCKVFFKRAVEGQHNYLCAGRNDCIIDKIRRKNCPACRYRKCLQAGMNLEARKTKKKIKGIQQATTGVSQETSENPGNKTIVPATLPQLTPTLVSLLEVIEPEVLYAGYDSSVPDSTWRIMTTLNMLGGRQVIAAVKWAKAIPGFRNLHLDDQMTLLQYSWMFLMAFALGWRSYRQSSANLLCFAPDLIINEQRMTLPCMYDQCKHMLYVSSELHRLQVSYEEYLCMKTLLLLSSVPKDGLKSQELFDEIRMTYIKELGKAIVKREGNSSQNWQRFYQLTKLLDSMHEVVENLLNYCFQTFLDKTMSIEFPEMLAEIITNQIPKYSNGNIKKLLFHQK

[6] = target: T3, 5-hydroxytryptamine receptor 1A
[7] = target: T5, Muscarinic acetylcholine receptor M1 (Homo sapiens, UniProt P11229); assay type: functional
T5 sequence (P11229 whole entry): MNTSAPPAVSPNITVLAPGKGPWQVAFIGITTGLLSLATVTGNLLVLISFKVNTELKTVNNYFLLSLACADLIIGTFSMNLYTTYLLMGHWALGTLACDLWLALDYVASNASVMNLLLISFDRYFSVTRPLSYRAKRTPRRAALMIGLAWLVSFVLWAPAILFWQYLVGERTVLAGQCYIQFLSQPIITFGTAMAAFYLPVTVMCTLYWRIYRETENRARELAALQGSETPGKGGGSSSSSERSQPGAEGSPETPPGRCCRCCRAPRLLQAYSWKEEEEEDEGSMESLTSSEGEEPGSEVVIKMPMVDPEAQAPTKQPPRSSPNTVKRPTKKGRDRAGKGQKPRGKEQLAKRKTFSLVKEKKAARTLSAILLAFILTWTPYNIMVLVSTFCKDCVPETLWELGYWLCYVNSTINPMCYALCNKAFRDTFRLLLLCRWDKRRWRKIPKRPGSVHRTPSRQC

[8] = target: Cannabinoid receptor 1 (Homo sapiens, UniProt P21554)
Sequence of Cannabinoid receptor 1 (P21554 whole entry): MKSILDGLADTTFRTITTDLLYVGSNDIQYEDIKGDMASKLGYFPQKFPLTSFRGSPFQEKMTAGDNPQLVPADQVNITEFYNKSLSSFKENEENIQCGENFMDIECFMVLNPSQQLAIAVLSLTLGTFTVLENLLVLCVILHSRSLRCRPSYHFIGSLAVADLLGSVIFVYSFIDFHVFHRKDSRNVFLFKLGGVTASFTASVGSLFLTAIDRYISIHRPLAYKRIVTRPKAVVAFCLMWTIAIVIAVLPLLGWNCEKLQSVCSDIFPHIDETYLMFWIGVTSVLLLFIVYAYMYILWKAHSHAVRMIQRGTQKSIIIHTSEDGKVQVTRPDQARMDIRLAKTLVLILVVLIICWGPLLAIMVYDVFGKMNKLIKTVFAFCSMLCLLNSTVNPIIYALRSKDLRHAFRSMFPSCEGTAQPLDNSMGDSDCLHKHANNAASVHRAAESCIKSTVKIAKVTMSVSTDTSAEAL

[9] = target: Beta-2 adrenergic receptor (Homo sapiens, UniProt P07550); assay type: functional, cell-based
Sequence of Beta-2 adrenergic receptor (P07550 whole entry): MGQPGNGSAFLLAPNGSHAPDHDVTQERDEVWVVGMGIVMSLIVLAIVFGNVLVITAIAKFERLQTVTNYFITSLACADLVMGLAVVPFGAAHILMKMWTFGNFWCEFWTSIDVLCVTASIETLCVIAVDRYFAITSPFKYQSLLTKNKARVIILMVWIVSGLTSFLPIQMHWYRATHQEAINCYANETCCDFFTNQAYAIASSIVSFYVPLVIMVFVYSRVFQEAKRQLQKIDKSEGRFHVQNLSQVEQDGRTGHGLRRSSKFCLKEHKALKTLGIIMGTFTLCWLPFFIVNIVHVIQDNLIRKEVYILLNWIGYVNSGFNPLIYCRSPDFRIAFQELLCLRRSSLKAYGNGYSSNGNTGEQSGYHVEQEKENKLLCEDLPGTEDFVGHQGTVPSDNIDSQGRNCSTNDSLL

[10] = target: 5-hydroxytryptamine receptor 2A (Homo sapiens, UniProt P28223); assay type: functional, cell-based
Sequence of 5-hydroxytryptamine receptor 2A (P28223 whole entry): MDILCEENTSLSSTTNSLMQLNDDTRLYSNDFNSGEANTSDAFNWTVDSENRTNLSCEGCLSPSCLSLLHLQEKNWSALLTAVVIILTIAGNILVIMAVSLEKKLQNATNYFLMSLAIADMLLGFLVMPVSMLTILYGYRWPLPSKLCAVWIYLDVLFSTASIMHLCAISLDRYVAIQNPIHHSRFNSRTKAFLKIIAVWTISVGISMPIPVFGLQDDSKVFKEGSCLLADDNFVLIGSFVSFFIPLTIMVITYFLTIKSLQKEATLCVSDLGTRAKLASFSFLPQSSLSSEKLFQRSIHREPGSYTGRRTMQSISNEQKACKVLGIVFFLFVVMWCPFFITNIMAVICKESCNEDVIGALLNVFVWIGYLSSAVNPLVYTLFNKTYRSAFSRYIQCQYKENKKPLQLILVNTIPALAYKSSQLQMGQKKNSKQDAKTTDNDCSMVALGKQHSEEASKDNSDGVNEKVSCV

[11] = target: Mu-type opioid receptor (Homo sapiens, UniProt P35372); test: biochemical; assay type: functional
Sequence of Mu-type opioid receptor (P35372 whole entry): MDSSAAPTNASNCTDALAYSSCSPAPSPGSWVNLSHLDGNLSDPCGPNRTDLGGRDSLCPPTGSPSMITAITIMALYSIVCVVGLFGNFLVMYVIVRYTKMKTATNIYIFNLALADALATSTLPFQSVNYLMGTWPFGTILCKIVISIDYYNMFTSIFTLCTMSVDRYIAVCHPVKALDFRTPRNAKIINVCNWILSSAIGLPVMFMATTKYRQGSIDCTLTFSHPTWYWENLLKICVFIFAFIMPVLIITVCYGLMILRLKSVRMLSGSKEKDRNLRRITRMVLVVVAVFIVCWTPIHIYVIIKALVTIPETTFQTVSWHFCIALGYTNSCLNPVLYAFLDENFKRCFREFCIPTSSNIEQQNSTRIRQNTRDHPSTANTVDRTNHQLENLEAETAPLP
Note: assay procedure not described here.

Compound	AC50 [1]	AC50 [2]	AC50 [3]	AC50 [4]	AC50 [5]	AC50 [6]	AC50 [7]	AC50 [8]	AC50 [9]	AC50 [10]	AC50 [11]
CC1=C(CC(=O)O)c2cc(F)ccc2/C1=C\c1ccc([S+](C)[O-])cc1 (stereo not given)	> 10 µM	> 30 µM	> 30 µM	> 10 µM	> 30 µM	> 10 µM					
O=C(O[C@H]1C[N+]2(CCCOc3ccccc3)CCC1CC2)C(O)(c1cccs1)c1cccs1 [ACLIDINIUM BROMIDE]	2.5 µM	> 10 µM	> 30 µM		> 30 µM	> 10 µM	0.018 µM	> 10 µM			
Cc1nnc2n1-c1ccc(Cl)cc1C(c1ccccc1)=NC2 [ALPRAZOLAM]	> 10 µM	> 10 µM	> 30 µM	> 10 µM	> 30 µM	> 10 µM		3.35 µM	> 30 µM		
CCN(CC)CCCN(c1ccccc1)C1Cc2ccccc2C1 [APRINDINE]	7.9 µM	> 30 µM		> 10 µM	> 30 µM		14.5 µM	> 10 µM	> 30 µM	2.89 µM	> 30 µM
CC(NC(C)(C)C)C(=O)c1cccc(Cl)c1 (stereo not given) [BUPROPION]	> 10 µM	> 10 µM	> 30 µM	> 10 µM	> 30 µM	> 10 µM		> 10 µM	> 30 µM		
COc1ccc(C(Cl)=C(c2ccc(OC)cc2)c2ccc(OC)cc2)cc1 [CHLOROTRIANISENE]	> 30 µM	> 30 µM		> 10 µM	> 30 µM		> 30 µM	> 10 µM	> 30 µM	> 30 µM	> 30 µM
O=C1CN=C(c2ccccc2Cl)c2cc([N+](=O)[O-])ccc2N1 [CLONAZEPAM]	> 10 µM	> 10 µM	> 30 µM	> 10 µM	> 30 µM	> 10 µM		> 10 µM	> 30 µM		
C=C(c1ccccc1OCc1cccc(Cl)c1)n1ccnc1 [CROCONAZOLE]	> 10 µM	> 30 µM		24 µM	3.46 µM	> 10 µM	> 10 µM				
CCN(CC)C(C)C(=O)c1ccccc1 (stereo not given) [DIETHYLPROPION]	> 10 µM	> 30 µM	> 30 µM	> 10 µM		> 10 µM	> 10 µM	> 10 µM	> 30 µM		
Cc1cnc(Nc2ccc(OCCN3CCCC3)cc2)nc1Nc1cccc(S(=O)(=O)NC(C)(C)C)c1 [FEDRATINIB]	7.4 µM	> 30 µM			> 30 µM	> 10 µM	1.2 µM	> 10 µM			
CCOC(=O)C1=C(C)NC(C)=C(C(=O)OC)C1c1cccc(Cl)c1Cl (stereo not given) [FELODIPINE]	> 10 µM	> 10 µM	> 30 µM	> 10 µM	9.94 µM	> 10 µM		13.4 µM			
CN1C(=O)CN=C(c2ccccc2F)c2cc([N+](=O)[O-])ccc21 [FLUNITRAZEPAM]	> 10 µM	> 10 µM	> 30 µM	> 10 µM	> 30 µM	> 10 µM	> 10 µM	> 10 µM			
CN1C2CCCC1CC(NC(=O)c1nn(C)c3ccccc13)C2 (stereo not given) [GRANISETRON]	> 10 µM	> 10 µM	> 30 µM	> 10 µM		> 10 µM		> 10 µM	> 30 µM		
N=C(N)NC(=O)Cc1c(Cl)cccc1Cl [GUANFACINE]		> 30 µM		> 30 µM	> 30 µM	11.5 µM		> 10 µM			> 30 µM
COc1ccc2c3c1O[C@H]1C(=O)CC[C@H]4[C@@H](C2)N(C)CC[C@]314 [HYDROCODONE]	> 10 µM	> 10 µM	> 30 µM	> 10 µM		> 10 µM	> 10 µM		> 30 µM	> 30 µM	
CC1Cc2ccccc2N1NC(=O)c1ccc(Cl)c(S(N)(=O)=O)c1 (stereo not given) [INDAPAMIDE]	> 10 µM					> 10 µM		> 10 µM	> 30 µM		
CN1CCC(=C2c3ccccc3CC(=O)c3sccc32)CC1 [KETOTIFEN]	6.45 µM	> 10 µM		> 10 µM	> 10 µM			> 10 µM	> 30 µM		> 30 µM
CCN(CC)CC(=O)Nc1c(C)cccc1C [LIDOCAINE]		> 10 µM	> 30 µM		> 30 µM						
Nc1cc(N2CCCCC2)nc(N)[n+]1[O-] [MINOXIDIL]	> 10 µM				> 30 µM	> 10 µM		> 10 µM	> 30 µM		
CCCCC[C@H](O)CC[C@@H]1[C@H]2Cc3cccc(OCC(=O)O)c3C[C@H]2C[C@H]1O [TREPROSTINIL]	> 30 µM	> 30 µM		> 30 µM	> 30 µM		> 30 µM		> 30 µM	> 30 µM	> 30 µM
CCCCCCCC(=O)CC[C@@H]1[C@@H](C/C=C\CCCC(=O)O)[C@@H](O)C[C@H]1O [UNOPROSTONE]	> 30 µM	> 30 µM		> 30 µM	> 30 µM		> 30 µM		> 30 µM	> 30 µM	> 30 µM
CCN(C(C)=O)c1cccc(-c2ccnc3c(C#N)cnn23)c1 [ZALEPLON]	> 10 µM			> 10 µM		> 10 µM					
TEPRENONE	> 10 µM	> 30 µM		> 30 µM	> 30 µM	> 10 µM	> 10 µM				
